Experimental data as given in ChEMBL document CHEMBL1201862, “PubChem BioAssay data set” (2004).
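Cultured in 96-well plates, cells were exposed to test compound for 48 hours across five concentrations. GI50 = concentration required for 50% inhibition of growth.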 Activity calls are given as the source filed them. Cut-off read from the data, not from the text of the source: active = GI50 up to about 1.1 µM and inactive = higher.

Tests used:
Assay in all cases: NCI anticancer screen, dose series, 48 h
[1] = test system: SK-OV-3
[2] = test system: OVCAR-5
[3] = test system: RXF 393
[4] = test system: HT-29
[5] = test system: OVCAR-4
[6] = test system: M14
[7] = test system: SN12C
[8] = test system: SW-620
[9] = test system: LOX IMVI
[10] = test system: UO-31
[11] = test system: HCC 2998
[12] = test system: TK-10
[13] = test system: A498
[14] = test system: U-251
[15] = test system: OVCAR-3
[16] = test system: UACC-62
[17] = test system: HOP-62
[18] = test system: Malme-3M
[19] = test system: A549

Row | SMILES | GI50 [1] | GI50 [2] | GI50 [3] | GI50 [4] | GI50 [5] | GI50 [6] | GI50 [7] | GI50 [8] | GI50 [9] | GI50 [10] | GI50 [11] | GI50 [12] | GI50 [13] | GI50 [14] | GI50 [15] | GI50 [16] | GI50 [17] | GI50 [18] | GI50 [19]
1 | COC(=O)c1cc(OC)c(OC)c(OC)c1-c1cc2c(cc1C=O)OCO2 | > 10 µM (inactive) | > 10 µM (inactive) | > 10 µM (inactive) | > 10 µM (inactive) | > 10 µM (inactive) | > 10 µM (inactive) | > 10 µM (inactive) | > 10 µM (inactive) | > 10 µM (inactive) | > 10 µM (inactive) | > 10 µM (inactive) | > 10 µM (inactive) | > 10 µM (inactive) | > 10 µM (inactive) | > 10 µM (inactive) | > 10 µM (inactive) | > 10 µM (inactive) | > 10 µM (inactive) | > 10 µM (inactive)
2 | O=C(O)c1cc(Cl)cc(NC(=O)C(Cl)Cl)c1Cl | > 100 µM (inactive) | – | > 100 µM (inactive) | > 100 µM (inactive) | > 100 µM (inactive) | > 100 µM (inactive) | > 100 µM (inactive) | > 100 µM (inactive) | > 100 µM (inactive) | > 100 µM (inactive) | > 100 µM (inactive) | > 100 µM (inactive) | > 100 µM (inactive) | > 100 µM (inactive) | > 100 µM (inactive) | > 100 µM (inactive) | > 100 µM (inactive) | > 100 µM (inactive) | > 100 µM (inactive)
3 | Cc1cc2c(cc1C)[n+]([O-])c(N1CCN(c3ccc([N+](=O)[O-])cc3)CC1)c(C#N)[n+]2[O-] | 14.2 µM (inactive) | 37.6 µM (inactive) | 13 µM (inactive) | > 100 µM (inactive) | 39.4 µM (inactive) | 35.9 µM (inactive) | 35.3 µM (inactive) | > 100 µM (inactive) | 25.2 µM (inactive) | 23.5 µM (inactive) | > 100 µM (inactive) | 15 µM (inactive) | 35 µM (inactive) | 17 µM (inactive) | – | 20.3 µM (inactive) | 15.2 µM (inactive) | 69.5 µM (inactive) | 29.8 µM (inactive)
4 | CC(C(N)=O)N(C)C(=O)c1cc2ccccc2[n+](Cc2ccccc2)c1 (stereo unspecified) | – | > 100 µM (inactive) | > 100 µM (inactive) | > 100 µM (inactive) | > 100 µM (inactive) | > 100 µM (inactive) | > 100 µM (inactive) | > 100 µM (inactive) | – | > 100 µM (inactive) | > 100 µM (inactive) | > 100 µM (inactive) | > 100 µM (inactive) | > 100 µM (inactive) | > 100 µM (inactive) | > 100 µM (inactive) | – | > 100 µM (inactive) | > 100 µM (inactive)
5 | CO[C@H]1[C@@H](O)[C@H](O[C@@H]2C[C@H]3CC[C@@H]4[C@H](CC[C@]5(C)[C@@H](C6=CC(=O)OC6)CC[C@]45O)[C@@]3(C)[C@H](OC(C)=O)C2)O[C@@H](C)[C@H]1O | 2.78 µM (inactive) | 2.18 µM (inactive) | 0.402 µM (active) | 3.04 µM (inactive) | 1.39 µM (inactive) | 2.22 µM (inactive) | 0.552 µM (active) | 2.36 µM (inactive) | 1.52 µM (inactive) | 1.27 µM (inactive) | 7.18 µM (inactive) | 1.17 µM (inactive) | 1.31 µM (inactive) | 2.54 µM (inactive) | 0.573 µM (active) | 2.43 µM (inactive) | 0.933 µM (active) | 1.18 µM (inactive) | 0.384 µM (active)
6 | CC(=O)C(I(OS(=O)(=O)c1ccc(C)cc1)c1ccccc1)=P(c1ccccc1)(c1ccccc1)c1ccccc1 | 43.6 µM (inactive) | 23 µM (inactive) | 42.1 µM (inactive) | 18.9 µM (inactive) | 14.8 µM (inactive) | 22.1 µM (inactive) | 15.9 µM (inactive) | – | – | > 100 µM (inactive) | 18 µM (inactive) | 84.9 µM (inactive) | > 100 µM (inactive) | 29.2 µM (inactive) | 20.2 µM (inactive) | 1.06 µM (active) | 23.3 µM (inactive) | 14.8 µM (inactive) | 24.4 µM (inactive)
7 | COc1ccc(/C=C2\CCc3ccccc3C2=O)cc1OC | 18.7 µM (inactive) | 67.3 µM (inactive) | – | 27.8 µM (inactive) | 17.8 µM (inactive) | 22.4 µM (inactive) | 25.2 µM (inactive) | 28.4 µM (inactive) | – | 29.2 µM (inactive) | 45.5 µM (inactive) | 32.6 µM (inactive) | 46.6 µM (inactive) | 31 µM (inactive) | 33.6 µM (inactive) | 16 µM (inactive) | 76.7 µM (inactive) | 38.3 µM (inactive) | 38.2 µM (inactive)
8 | CN1CCc2c(sc3ncn(Nc4ccc(Cl)cc4)c(=N)c23)C1 | > 100 µM (inactive) | > 100 µM (inactive) | > 100 µM (inactive) | > 100 µM (inactive) | > 100 µM (inactive) | > 100 µM (inactive) | > 100 µM (inactive) | > 100 µM (inactive) | > 100 µM (inactive) | – | – | > 100 µM (inactive) | > 100 µM (inactive) | > 100 µM (inactive) | > 100 µM (inactive) | > 100 µM (inactive) | > 100 µM (inactive) | > 100 µM (inactive) | > 100 µM (inactive)
